Measurements taken from US9738634B2, “Heterocyclic amide compound and herbicide” (SYNGENTA PARTICIPATIONS AG, priority 2013, dated 2017).

Key:
Format in all cases: in vivo
[1] = tested on: green foxtail; experiment: Test Example 4: weedkilling efficacy by foliar treatment; E: green foxtail; settings: treatment dosage 315 g/ha
Method: (§1) Testing of Weedkilling Efficacy by Foliar Treatment
(§2) Sterilized diluvial soil was introduced into 21 cm long, 13 cm wide, 7 cm deep plastic boxes, and seeds of crabgrass, green foxtail, barnyard grass, wild oat, black-grass, Italian ryegrass, common wind-grass, Indian mallow, redroot pigweed, fig-leafed goosefoot, chickweed, catchweed, birds-eye speedwell, corn, soybean, rice, wheat, beet and rapeseed were each spot-sown, and covered with about 1.5 cm of soil, then the plants were grown in a greenhouse at 25 to 30° C.
(§3) After they had grown for 14 days, emulsions of compounds of the present invention prepared according to compounding example 2 were diluted with water to give the specified dosages, and applied uniformly onto the stem and leaf parts with a small sprayer. 3 weeks after the pesticide treatment the effect on each type of plant was investigated on the basis of the assessment criteria of test example 1.
(§4) A: barnyard grass, B: bulrush, C: oval-leafed pondweed, D: crabgrass, E: green foxtail, F: barnyard grass, G: wild oat, H: black-grass, I: Italian ryegrass, J: common wind-grass, K: Indian mallow, L: redroot pigweed, M: fig-leafed goosefoot, N: chickweed, O: catchweed, p: birds-eye speedwell, a: transplanted rice, b: directly sown rice, c: corn, d: soybean, e: wheat, f: beet, g: rapeseed
(§5) Further, pesticide dosage (g/ha) indicates the concentration regulated such that treatment was with only the stated number of grams (g), when calculated per hectare (ha).

[2] = tested on: bulrush; experiment: Test Example 1: weedkilling efficacy, preemergent weed treatment in the submerged state; B: bulrush; settings: treatment dosage 252 g/ha
Outline: (§6)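 Pots of alluvial soil were flooded to a 4 cm depth. Mixed weed seeds were sown and 2.5 leaf-stage rice seedlings transplanted. On sowing day, water-diluted emulsion was applied to the water surface (dose in g/ha). After 3 weeks at 25–30 °C, effects were rated.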

[3] = tested on: birds-eye speedwell; experiment: Test Example 4: weedkilling efficacy by foliar treatment; p: birds-eye speedwell; settings: treatment dosage 315 g/ha
Method: as §1, §2, §3, §4, §5

[4] = tested on: beet; experiment: Test Example 4: foliar treatment, effect on crop; f: beet; settings: treatment dosage 315 g/ha
Method: as §1, §2, §3, §4, §5

[5] = tested on: redroot pigweed; experiment: Test Example 3: weedkilling efficacy through soil treatment; L: redroot pigweed; settings: treatment dosage 315 g/ha
Outline: (§7)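 Crop and weed responses were judged three weeks after a uniform surface spray of the water-diluted emulsion at the given g/ha rate. Seeds sat beneath about 1.5 cm of sterilized diluvial soil, and boxes stood in a greenhouse at 25 to 30° C.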

[6] = tested on: transplanted rice; experiment: Test Example 1: preemergent weed treatment in the submerged state, effect on crop; a: transplanted rice; settings: treatment dosage 252 g/ha
Outline: as §6

[7] = tested on: oval-leafed pondweed; experiment: Test Example 2: weedkilling efficacy, growth period weed treatment in the submerged state; C: oval-leafed pondweed; settings: treatment dosage 252 g/ha
Outline: (§8)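 Weeds treated at the 1-2 leaf stage by application of diluted emulsion onto floodwater (4 cm depth, alluvial soil) at specified g/ha. Grown in greenhouse at 25 to 30° C; herbicidal effect rated three weeks after treatment.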

[8] = tested on: black-grass; experiment: Test Example 4: weedkilling efficacy by foliar treatment; H: black-grass; settings: treatment dosage 315 g/ha
Method: as §1, §2, §3, §4, §5

[9] = tested on: chickweed; experiment: Test Example 3: weedkilling efficacy through soil treatment; N: chickweed; settings: treatment dosage 315 g/ha
Outline: as §7

[10] = tested on: redroot pigweed; experiment: Test Example 4: weedkilling efficacy by foliar treatment; L: redroot pigweed; settings: treatment dosage 315 g/ha
Method: as §1, §2, §3, §4, §5

[11] = tested on: Indian mallow; experiment: Test Example 4: weedkilling efficacy by foliar treatment; K: Indian mallow; settings: treatment dosage 315 g/ha
Method: as §1, §2, §3, §4, §5

[12] = tested on: directly sown rice; experiment: Test Example 4: foliar treatment, effect on crop; b: directly sown rice; settings: treatment dosage 315 g/ha
Method: as §1, §2, §3, §4, §5

[13] = tested on: beet; experiment: Test Example 3: soil treatment, effect on crop; f: beet; settings: treatment dosage 315 g/ha
Outline: as §7

[14] = tested on: catchweed; experiment: Test Example 4: weedkilling efficacy by foliar treatment; O: catchweed; settings: treatment dosage 315 g/ha
Method: as §1, §2, §3, §4, §5

[15] = tested on: corn; experiment: Test Example 3: soil treatment, effect on crop; c: corn; settings: treatment dosage 315 g/ha
Outline: as §7

[16] = tested on: Indian mallow; experiment: Test Example 3: weedkilling efficacy through soil treatment; K: Indian mallow; settings: treatment dosage 315 g/ha
Outline: as §7

[17] = tested on: oval-leafed pondweed; experiment: Test Example 1: weedkilling efficacy, preemergent weed treatment in the submerged state; C: oval-leafed pondweed; settings: treatment dosage 252 g/ha
Outline: as §6

[18] = tested on: soybean; experiment: Test Example 3: soil treatment, effect on crop; d: soybean; settings: treatment dosage 315 g/ha
Outline: as §7

[19] = tested on: crabgrass; experiment: Test Example 3: weedkilling efficacy through soil treatment; D: crabgrass; settings: treatment dosage 315 g/ha
Outline: as §7

[20] = tested on: barnyard grass; experiment: Test Example 2: weedkilling efficacy, growth period weed treatment in the submerged state; A: barnyard grass; settings: treatment dosage 252 g/ha
Outline: as §8

[21] = tested on: Italian ryegrass; experiment: Test Example 3: weedkilling efficacy through soil treatment; I: Italian ryegrass; settings: treatment dosage 315 g/ha
Outline: as §7

[22] = tested on: wheat; experiment: Test Example 3: soil treatment, effect on crop; e: wheat; settings: treatment dosage 315 g/ha
Outline: as §7

[23] = tested on: directly sown rice; experiment: Test Example 3: soil treatment, effect on crop; b: directly sown rice; settings: treatment dosage 315 g/ha
Outline: as §7

[24] = tested on: birds-eye speedwell; experiment: Test Example 3: weedkilling efficacy through soil treatment; p: birds-eye speedwell; settings: treatment dosage 315 g/ha
Outline: as §7

[25] = tested on: chickweed; experiment: Test Example 4: weedkilling efficacy by foliar treatment; N: chickweed; settings: treatment dosage 315 g/ha
Method: as §1, §2, §3, §4, §5

[26] = tested on: fig-leafed goosefoot; experiment: Test Example 4: weedkilling efficacy by foliar treatment; M: fig-leafed goosefoot; settings: treatment dosage 315 g/ha
Method: as §1, §2, §3, §4, §5

[27] = tested on: wheat; experiment: Test Example 4: foliar treatment, effect on crop; e: wheat; settings: treatment dosage 315 g/ha
Method: as §1, §2, §3, §4, §5

[28] = tested on: crabgrass; experiment: Test Example 4: weedkilling efficacy by foliar treatment; D: crabgrass; settings: treatment dosage 315 g/ha
Method: as §1, §2, §3, §4, §5

[29] = tested on: green foxtail; experiment: Test Example 3: weedkilling efficacy through soil treatment; E: green foxtail; settings: treatment dosage 315 g/ha
Outline: as §7

[30] = tested on: black-grass; experiment: Test Example 3: weedkilling efficacy through soil treatment; H: black-grass; settings: treatment dosage 315 g/ha
Outline: as §7

[31] = tested on: barnyard grass; experiment: Test Example 1: weedkilling efficacy, preemergent weed treatment in the submerged state; A: barnyard grass; settings: treatment dosage 252 g/ha
Outline: as §6

[32] = tested on: corn; experiment: Test Example 4: foliar treatment, effect on crop; c: corn; settings: treatment dosage 315 g/ha
Method: as §1, §2, §3, §4, §5

[33] = tested on: soybean; experiment: Test Example 4: foliar treatment, effect on crop; d: soybean; settings: treatment dosage 315 g/ha
Method: as §1, §2, §3, §4, §5

[34] = tested on: Italian ryegrass; experiment: Test Example 4: weedkilling efficacy by foliar treatment; I: Italian ryegrass; settings: treatment dosage 315 g/ha
Method: as §1, §2, §3, §4, §5

[35] = tested on: fig-leafed goosefoot; experiment: Test Example 3: weedkilling efficacy through soil treatment; M: fig-leafed goosefoot; settings: treatment dosage 315 g/ha
Outline: as §7

[36] = tested on: bulrush; experiment: Test Example 2: weedkilling efficacy, growth period weed treatment in the submerged state; B: bulrush; settings: treatment dosage 252 g/ha
Outline: as §8

## CC1=C(c2ccsc2)C(=O)N(C(C)(C)C(=O)Nc2cccc(Cl)n2)CO1 [B-2-05]
[1]
  E (green foxtail) weedkilling efficacy grade: 5 (weed kill ratio 90% or more, (practically complete withering))
[2]
  B (bulrush) weedkilling efficacy grade: 5 (weed kill ratio 90% or more, (practically complete withering))
[3]
  P (birds-eye speedwell) weedkilling efficacy grade: 5 (weed kill ratio 90% or more, (practically complete withering))
[4]
  f (beet) effect on crop grade: 4 (weed kill ratio 70% or more, less than 90%)
[5]
  L (redroot pigweed) weedkilling efficacy grade: 4 (weed kill ratio 70% or more, less than 90%)
[6]
  a (transplanted rice) effect on crop grade: 0 (weed kill ratio 5% or less (practically no effect))
[7]
  C (oval-leafed pondweed) weedkilling efficacy grade: 5 (weed kill ratio 90% or more, (practically complete withering))
[8]
  H (black-grass) weedkilling efficacy grade: 5 (weed kill ratio 90% or more, (practically complete withering))
[9]
  N (chickweed) weedkilling efficacy grade: 5 (weed kill ratio 90% or more, (practically complete withering))
[10]
  L (redroot pigweed) weedkilling efficacy grade: 3 (weed kill ratio 40% or more, less than 70%)
[11]
  K (Indian mallow) weedkilling efficacy grade: 3 (weed kill ratio 40% or more, less than 70%)
[12]
  b (directly sown rice) effect on crop grade: 4 (weed kill ratio 70% or more, less than 90%)
[13]
  f (beet) effect on crop grade: 5 (weed kill ratio 90% or more, (practically complete withering))
[14]
  O (catchweed) weedkilling efficacy grade: 4 (weed kill ratio 70% or more, less than 90%)
[15]
  c (corn) effect on crop grade: 0 (weed kill ratio 5% or less (practically no effect))
[16]
  K (Indian mallow) weedkilling efficacy grade: 1 (weed kill ratio 5% or more, less than 20%)
[17]
  C (oval-leafed pondweed) weedkilling efficacy grade: 5 (weed kill ratio 90% or more, (practically complete withering))
[18]
  d (soybean) effect on crop grade: 0 (weed kill ratio 5% or less (practically no effect))
[19]
  D (crabgrass) weedkilling efficacy grade: 5 (weed kill ratio 90% or more, (practically complete withering))
[20]
  A (barnyard grass) weedkilling efficacy grade: 5 (weed kill ratio 90% or more, (practically complete withering))
[21]
  I (Italian ryegrass) weedkilling efficacy grade: 5 (weed kill ratio 90% or more, (practically complete withering))
[22]
  e (wheat) effect on crop grade: 0 (weed kill ratio 5% or less (practically no effect))
[23]
  b (directly sown rice) effect on crop grade: 3 (weed kill ratio 40% or more, less than 70%)
[24]
  P (birds-eye speedwell) weedkilling efficacy grade: 5 (weed kill ratio 90% or more, (practically complete withering))
[25]
  N (chickweed) weedkilling efficacy grade: 4 (weed kill ratio 70% or more, less than 90%)
[26]
  M (fig-leafed goosefoot) weedkilling efficacy grade: 4 (weed kill ratio 70% or more, less than 90%)
[27]
  e (wheat) effect on crop grade: 3 (weed kill ratio 40% or more, less than 70%)
[28]
  D (crabgrass) weedkilling efficacy grade: 5 (weed kill ratio 90% or more, (practically complete withering))
[29]
  E (green foxtail) weedkilling efficacy grade: 5 (weed kill ratio 90% or more, (practically complete withering))
[30]
  H (black-grass) weedkilling efficacy grade: 5 (weed kill ratio 90% or more, (practically complete withering))
[31]
  A (barnyard grass) weedkilling efficacy grade: 5 (weed kill ratio 90% or more, (practically complete withering))
[32]
  c (corn) effect on crop grade: 4 (weed kill ratio 70% or more, less than 90%)
[33]
  d (soybean) effect on crop grade: 3 (weed kill ratio 40% or more, less than 70%)
[34]
  I (Italian ryegrass) weedkilling efficacy grade: 5 (weed kill ratio 90% or more, (practically complete withering))
[35]
  M (fig-leafed goosefoot) weedkilling efficacy grade: 5 (weed kill ratio 90% or more, (practically complete withering))
[36]
  B (bulrush) weedkilling efficacy grade: 5 (weed kill ratio 90% or more, (practically complete withering))
